Source: patent US8916551B2, “Heterocyclic compound and use thereof” (Takeda Pharmaceutical Company Limited, priority 2010, dated 2014)

Columns and labels:
[1] = test system: methamphetamine (MAP)-induced hyperlocomotion in mice; test: Inhibition of methamphetamine (MAP)-induced hyperlocomotion; format: in vivo; settings: male ICR mice; compound 10 mg/kg p.o. 60 min before MAP 2 mg/kg s.c.; counts 120 min after MAP
Experimental: Male ICR mice were supplied by CLEA Japan, Inc (Japan). After arrival to the vivarium, animals were allowed a minimum of 1 week for acclimation. They were housed under a 12:12-h light/dark cycle in a temperature- and humidity-controlled laboratory and allowed food and water ad libitum.
A test compound was suspended in 0.5% methylcellulose in distilled water and orally administered (p.o.). Methamphetamine (Dainippon Sumitomo Pharma Co., Ltd.) was dissolved in saline and subcutaneously administered (s.c.). All drugs were dosed in a volume of 10 mL/kg body weight for mice.
The widely used animal models of psychosis have been the measurement of the extent of hyperlocomotion induced by psychostimulants (e.g., amphetamine, cocaine, methamphetamine, MK-801 and phencyclidine) in rodents (Psychopharmacology 1999, vol. 145: 237-250). 4 compounds (A, B, C, D) were tested for its ability to antagonize MAP-induced hyperlocomotion in mice. Male ICR mice were habituated in the locomotor chambers with infrared sensors (BrainScienceldea Co., Ltd. Japan) to the experiment. After the habituation, animals were treated with either vehicle or the compounds (10 mg/kg, p.o.), and MAP (2 mg/kg, s.c.) was administrated 60 min later. Locomotion activities were measured, and accumulated counts (120 min after administration of MAP) were calculated in each treatment group. All data were represented as means plus the standard errors of the means (n=3-9) and analyzed using Student's t-test with significance set at **P<0.01 and ***P<0.001 or Welch's t-test with significance set at ^$P<0.05, ^$$P<0.01 and ^$$$P<0.001.

[2] = target: T1, AMPA receptor (human GluR1 flip/stargazin expressed in CHO-K1 cells) (Homo sapiens, UniProt P42261); test: AMPA receptor function enhancing activity using calcium influx as index; format: cell-based; settings: 100% = 3 mM glutamic acid + 300 μM cyclothiazide, 0% = 3 mM glutamic acid only
T1 construct: expressed in transfected cells; host or cells: CHO-K1
T1 sequence (P42261 19-906 isoform P42261-2 limits assumed): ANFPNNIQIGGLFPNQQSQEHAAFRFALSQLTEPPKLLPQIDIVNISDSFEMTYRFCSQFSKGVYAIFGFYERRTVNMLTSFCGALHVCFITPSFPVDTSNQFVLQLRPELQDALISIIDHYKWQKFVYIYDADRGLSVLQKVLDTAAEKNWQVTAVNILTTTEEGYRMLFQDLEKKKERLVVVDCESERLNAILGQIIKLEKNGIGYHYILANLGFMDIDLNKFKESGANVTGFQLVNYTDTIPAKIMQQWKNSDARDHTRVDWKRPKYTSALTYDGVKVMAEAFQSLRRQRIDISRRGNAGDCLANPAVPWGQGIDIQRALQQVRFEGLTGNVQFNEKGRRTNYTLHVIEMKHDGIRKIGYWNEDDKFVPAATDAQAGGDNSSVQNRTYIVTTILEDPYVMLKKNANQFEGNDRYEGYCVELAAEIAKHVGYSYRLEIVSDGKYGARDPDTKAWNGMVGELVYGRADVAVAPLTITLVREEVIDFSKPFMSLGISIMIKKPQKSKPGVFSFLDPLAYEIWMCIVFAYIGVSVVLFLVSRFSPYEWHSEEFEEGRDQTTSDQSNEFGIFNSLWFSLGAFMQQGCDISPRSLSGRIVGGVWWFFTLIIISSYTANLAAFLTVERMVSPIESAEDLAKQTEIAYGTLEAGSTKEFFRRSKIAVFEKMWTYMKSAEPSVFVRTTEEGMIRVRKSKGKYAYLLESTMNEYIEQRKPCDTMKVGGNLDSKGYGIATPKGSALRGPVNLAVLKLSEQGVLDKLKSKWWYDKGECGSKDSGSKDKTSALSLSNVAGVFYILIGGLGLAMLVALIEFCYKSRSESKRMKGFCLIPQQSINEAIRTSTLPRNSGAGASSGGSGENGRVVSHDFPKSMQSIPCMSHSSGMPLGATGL
T1 sequence (Q9Y698 whole entry partner): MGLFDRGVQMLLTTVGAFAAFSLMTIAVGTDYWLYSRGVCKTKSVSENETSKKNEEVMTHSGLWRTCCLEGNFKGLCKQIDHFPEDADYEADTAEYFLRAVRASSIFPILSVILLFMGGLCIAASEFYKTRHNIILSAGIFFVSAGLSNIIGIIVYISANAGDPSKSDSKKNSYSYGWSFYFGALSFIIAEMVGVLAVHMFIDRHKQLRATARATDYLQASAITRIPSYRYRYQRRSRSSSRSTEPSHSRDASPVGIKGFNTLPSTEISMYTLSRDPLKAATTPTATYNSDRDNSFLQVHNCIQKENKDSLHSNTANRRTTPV
Method in brief: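 CHO-K1 clone stably co-expressing human GluR1 flip and stargazin, loaded with Calcium 4 dye plus probenecid. Compound at 30 μM was added with glutamate (3 mM final) and fluorescence change followed over 3 min. Activity is expressed as % of the 3 mM glutamate plus 300 μM cyclothiazide response, with glutamate alone as 0%.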

[3] = test compound 30 μM with glutamic acid final 3 mM, change in fluorescence in 3 min
[4] = test compound 30 μM with 3 mM glutamic acid, change in fluorescence level in 3 min

| activity (%) [2, 3] | melting point | activity (%) [2, 4] | Compound | inhibition of MAP-induced hyperlocomotion (accumulated locomotion counts 0-120 min) [1] |
| --- | --- | --- | --- | --- |
|  | 158 to 159 °C | 74% | Cc1cc(F)cc(Oc2ccc([C@@H]3CCCN4CCS(=O)(=O)N=C34)cc2)c1 [Example 236, (9S)-9-[4-(3-fluoro-5-methylphenoxy)phenyl]-3,4,6,7,8,9-hexahydropyrido[2,1-c][1,2,4]thiadiazine 2,2-dioxide] |  |
|  | 232 to 234 °C | 70% | O=S1(=O)CCN2C=CC=C(c3ccc(Oc4ccc(Cl)cc4)cc3)C2=N1 [Example 147, 9-[4-(4-chlorophenoxy)phenyl]-3,4-dihydropyrido[2,1-c][1,2,4]thiadiazine 2,2-dioxide] |  |
|  | 219 to 220 °C | 91% | N#Cc1ccc(Oc2ccc(C3CCCN4CCS(=O)(=O)N=C34)cc2)cc1Cl (centres unmarked) [Example 183, 2-chloro-4-[4-(2,2-dioxido-3,4,6,7,8,9-hexahydropyrido[2,1-c][1,2,4]thiadiazin-9-yl)phenoxy]benzonitrile] |  |
|  | 180 to 181 °C | 68% | O=S1(=O)CCN2CCC[C@@H](c3ccc(Oc4cc(F)c(F)c(F)c4)cc3)C2=N1 [Example 227, (9S)-9-[4-(3,4,5-trifluorophenoxy)phenyl]-3,4,6,7,8,9-hexahydropyrido[2,1-c][1,2,4]thiadiazine 2,2-dioxide] |  |
|  | 174 to 176 °C | 60% | O=S1(=O)CCN2CCCC(c3ccc(Oc4ccc(C(F)(F)F)cc4)cc3)C2=N1 (centres unmarked) [Example 232, 9-{4-[4-(trifluoromethyl)phenoxy]phenyl}-3,4,6,7,8,9-hexahydropyrido[2,1-c][1,2,4]thiadiazine 2,2-dioxide] |  |
|  | 156 to 157 °C | 74% | CCc1ccc(Oc2ccc([C@@H]3CCCN4CCS(=O)(=O)N=C34)cc2)cc1 [Example 218, (9S)-9-[4-(4-ethylphenoxy)phenyl]-3,4,6,7,8,9-hexahydropyrido[2,1-c][1,2,4]thiadiazine 2,2-dioxide] |  |
|  | 289 to 290 °C | 87% | O=S1(=O)CCN2C=CC=C(c3ccc(Oc4ccc(O)cc4)cc3)C2=N1 [Example 198, 4-[4-(2,2-dioxido-3,4-dihydropyrido[2,1-c][1,2,4]thiadiazin-9-yl)phenoxy]phenol] |  |
|  | 215 to 216 °C | 73% | O=S1(=O)CCN2CCCC(c3ccc(Oc4ccc(Cl)cc4)cc3)C2=N1 (centres unmarked) [Example 148, 9-[4-(4-chlorophenoxy)phenyl]-3,4,6,7,8,9-hexahydropyrido[2,1-c][1,2,4]thiadiazine 2,2-dioxide] |  |
|  | 240 to 242 °C | 76% | Cc1cc(F)ccc1Oc1ccc(C2=CC=CN3CCS(=O)(=O)N=C23)cc1 [Example 143, 9-[4-(4-fluoro-2-methylphenoxy)phenyl]-3,4-dihydropyrido[2,1-c][1,2,4]thiadiazine 2,2-dioxide] |  |
|  | 239 to 240 °C | 79% | CC(C)Oc1ccc(C2=CC=CN3CCS(=O)(=O)N=C23)cc1Cl [Example 208, 9-[3-chloro-4-(1-methylethoxy)phenyl]-3,4-dihydropyrido[2,1-c][1,2,4]thiadiazine 2,2-dioxide] |  |

Second part, the molecule before the results:

| Compound | activity (%) [2, 3] | melting point | activity (%) [2, 4] | inhibition of MAP-induced hyperlocomotion (accumulated locomotion counts 0-120 min) [1] |
| --- | --- | --- | --- | --- |
| O=S1(=O)CCN2C=CC=C(c3ccc(OC4CCCCC4)cc3)C2=N1 [D, 9-[4-(cyclohexyloxy)phenyl]-3,4-dihydropyrido[2,1-c][1,2,4]thiadiazine 2,2-dioxide] |  |  |  | significant inhibition |
| O=S1(=O)CCN2C=CC=C(c3ccc(Oc4ccccc4)cc3)C2=N1 [A, 9-(4-phenoxyphenyl)-3,4-dihydropyrido[2,1-c][1,2,4]thiadiazine 2,2-dioxide] |  |  |  | significant inhibition |
| CC1=CN2CCS(=O)(=O)N=C2C(c2ccc(OC3CCCCC3)cc2)=N1 [C, 9-[4-(cyclohexyloxy)phenyl]-7-methyl-3,4-dihydropyrazino[2,1-c][1,2,4]thiadiazine 2,2-dioxide] |  |  |  | significant inhibition |
| O=S1(=O)CCN2C=C(Cl)C=C(c3ccc(Oc4ccnc(C(F)(F)F)c4)cc3)C2=N1 [Example 79, 7-chloro-9-(4-{[2-(trifluoromethyl)pyridin-4-yl]oxy}phenyl)-3,4-dihydropyrido[2,1-c][1,2,4]thiadiazine 2,2-dioxide] | 90% | 239 to 240 °C |  |  |
| Cc1ccc(Oc2ccc(C3=CC=CN4CCS(=O)(=O)N=C34)cc2)cc1 [B, 9-[4-(4-methylphenoxy)phenyl]-3,4-dihydropyrido[2,1-c][1,2,4]thiadiazine 2,2-dioxide] |  |  |  | significant inhibition |
| O=S1(=O)CCN2C=CC=C(c3ccc(OC(F)(F)F)cc3)C2=N1 [Example 34, 9-[4-(trifluoromethoxy)phenyl]-3,4-dihydropyrido[2,1-c][1,2,4]thiadiazine 2,2-dioxide] | 78% | 249 to 251 °C |  |  |
| O=S1(=O)CCN2C=C(Cl)C=C(c3ccc(Oc4ncccc4C(F)(F)F)cc3)C2=N1 [Example 78, 7-chloro-9-(4-{[3-(trifluoromethyl)pyridin-2-yl]oxy}phenyl)-3,4-dihydropyrido[2,1-c][1,2,4]thiadiazine 2,2-dioxide] | 72% | 264 to 265 °C |  |  |
| O=S1(=O)CCN2C=C(Cl)C=C(c3ccc(OC4CCCCC4)cc3)C2=N1 [Example 73, 7-chloro-9-[4-(cyclohexyloxy)phenyl]-3,4-dihydropyrido[2,1-c][1,2,4]thiadiazine 2,2-dioxide] | 75% | 284 to 287 °C |  |  |
| O=S1(=O)CCN2CCC[C@@H](c3ccc(Oc4ccccc4)cc3)C2=N1 [Example 63, (9S)-9-(4-phenoxyphenyl)-3,4,6,7,8,9-hexahydropyrido[2,1-c][1,2,4]thiadiazine 2,2-dioxide] | 77% | 174 to 175 °C |  |  |
| O=S1(=O)CCN2C=CC=C(c3ccc(-c4ccccc4)cc3)C2=N1 [Example 14, 9-biphenyl-4-yl-3,4-dihydropyrido[2,1-c][1,2,4]thiadiazine 2,2-dioxide] | 78% | 315 to 316 °C |  |  |
| O=S1(=O)CCN2C=CC=C(c3ccc(OCC4CCOCC4)cc3)C2=N1 [Example 69, 9-[4-(tetrahydro-2H-pyran-4-ylmethoxy)phenyl]-3,4-dihydropyrido[2,1-c][1,2,4]thiadiazine 2,2-dioxide] | 71% | 268 to 269 °C |  |  |
| O=S1(=O)CCN2C=CN=C(c3ccc(OC4CCCCC4)cc3)C2=N1 [Example 68, 9-[4-(cyclohexyloxy)phenyl]-3,4-dihydropyrazino[2,1-c][1,2,4]thiadiazine 2,2-dioxide] | 77% | 239 to 240 °C |  |  |
| Cc1ccc(C(F)(F)c2ccc(C3CCCN4CCS(=O)(=O)N=C34)cc2)cc1 (centres unmarked) [Example 137, 9-{4-[difluoro(4-methylphenyl)methyl]phenyl}-3,4,6,7,8,9-hexahydropyrido[2,1-c][1,2,4]thiadiazine 2,2-dioxide] | 61% | 190 to 191 °C |  |  |
| CC(C)c1ccc(C#CC2=CC=CN3CCS(=O)(=O)N=C23)cc1 [Example 26, 9-{[4-(1-methylethyl)phenyl]ethynyl}-3,4-dihydropyrido[2,1-c][1,2,4]thiadiazine 2,2-dioxide] | 87% | 258 to 262 °C |  |  |
